Experimental data as given in DBAASP.
Values after ≈ are worked out from the molar mass of the structure shown.

Legend:
Assay in all cases: ≥ marks a high value that may be exact or a test limit, other limits are often not marked, values filed in µg/mL are converted to µM
[1] = test system: Pseudomonas aeruginosa CMCCB 10104
[2] = test system: Escherichia coli ATCC 25922
[3] = test system: Staphylococcus aureus ATCC 25923
[4] = test system: Candida albicans ATCC 2002
[5] = test system: Candida albicans ATCC 90028
[6] = test system: Klebsiella pneumoniae ATCC 700603
[7] = test system: Escherichia coli ATCC 25726
[8] = test system: Pseudomonas aeruginosa ATCC 27853

Row | Compound | MIC [1] [µM] | MIC [2] [µM] | MIC [3] [µM] | MIC [4] [µM] | MIC [5] [µM] | MIC [6] [µM] | MIC [7] [µM] | MIC [8] [µM]
1 | CC[C@H](C)[C@H](NC(=O)[C@H](C)NC(=O)[C@H](CC(C)C)NC(=O)[C@H](CCC(=O)O)NC(=O)[C@H](CCCCN)NC(=O)[C@H](Cc1ccccc1)NC(=O)[C@@H](NC(=O)[C@H](CO)NC(=O)[C@H](CC(C)C)NC(=O)[C@H](Cc1ccccc1)NC(=O)[C@@H](N)CO)[C@@H](C)O)C(=O)N[C@@H](CC(N)=O)C(=O)N[C@@H](C)C(=O)N[C@@H](C)C(=O)N[C@@H](CCCCN)C(=O)N[C@@H](CC(N)=O)C(=O)N[C@@H](C)C(=O)NCC(=O)N[C@@H](CCC(N)=O)C(=O)N[C@@H](CO)C(=O)N[C@H](C(=O)N[C@@H](CC(C)C)C(=O)N[C@@H](Cc1cnc[nH]1)C(=O)N[C@H](C(=O)N[C@@H](CC(C)C)C(=O)N[C@@H](CO)C(=O)N[C@H]1CSSC[C@@H](C(=O)O)NC(=O)[C@H]([C@@H](C)O)NC(=O)[C@H](CCCCN)NC(=O)[C@H](CC(=O)O)NC(=O)[C@H](CC(C)C)NC(=O)[C@H](CCCCN)NC1=O)[C@@H](C)O)[C@@H](C)CC [SFLSTFKELAINAAKNAGQSILHTLSCKLDKTC] | 5.74 (≈ 20.4 µg/mL) | 5.74 (≈ 20.4 µg/mL) | 2.87 (≈ 10.2 µg/mL) | 1.44 (≈ 5.1 µg/mL) |  |  |  | 
2 | CC[C@H](C)[C@H](NC(=O)CN)C(=O)N[C@@H](Cc1ccccc1)C(=O)N[C@@H](CC(C)C)C(=O)N[C@@H](CCCCN)C(=O)N[C@H](C(=O)N[C@@H](CC(C)C)C(=O)NCC(=O)N[C@H](C(=O)NCC(=O)N[C@@H](CCCCN)C(=O)N[C@@H](CCCCN)C(=O)N[C@H](C(=O)N[C@@H](CC(C)C)C(=O)N[C@H]1CSSC[C@@H](C(=O)O)NC(=O)[C@H](CC(C)C)NC(=O)CNC(=O)[C@H](CO)NC(=O)[C@H](C(C)C)NC(=O)CNC1=O)C(C)C)C(C)C)C(C)C [GIFLKVLGVGKKVLCGVSGLC] | 10.3 (≈ 21.6 µg/mL) | 5.17 (≈ 10.8 µg/mL) | 2.58 (≈ 5.39 µg/mL) | 5.17 (≈ 10.8 µg/mL) |  |  |  | 
3 | CC[C@H](C)[C@H](N)C(=O)N1CCC[C@H]1C(=O)N[C@@H](Cc1c[nH]c2ccccc12)C(=O)N[C@@H](CCCCN)C(=O)N[C@@H](CC(C)C)C(=O)N1CCC[C@H]1C(=O)N[C@@H](C)C(=O)N[C@H](C(=O)N[C@@H](Cc1ccccc1)C(=O)N[C@@H](CCCN=C(N)N)C(=O)N1CCC[C@H]1C(=O)N[C@H](C(=O)N[C@@H](CCC(=O)O)C(=O)N[C@@H](CCCN=C(N)N)C(=O)N1CCC[C@H]1C(=O)N[C@@H](Cc1ccccc1)C(=O)N[C@@H](CO)C(=O)N[C@@H](CCCCN)C(=O)N1CCC[C@H]1C(=O)N[C@@H](Cc1ccccc1)C(=O)N[C@@H](CS)C(=O)N[C@@H](CCCN=C(N)N)C(=O)N[C@@H](CCCCN)C(=O)N[C@@H](CC(=O)O)C(=O)O)C(C)C)[C@@H](C)O [IPWKLPATFRPVERPFSKPFCRKD] | ≥ 34.3 | > 34.3 | 34.3 (≈ 100 µg/mL) | ≥ 34.3 |  |  |  | 
4 | CC[C@H](C)[C@H](NC(=O)CNC(=O)[C@H](CCCCN)NC(=O)CNC(=O)[C@H](C)NC(=O)[C@H](Cc1ccccc1)NC(=O)[C@H](CCCCN)NC(=O)[C@H](CO)NC(=O)[C@H](Cc1ccccc1)NC(=O)[C@H](CC(C)C)NC(=O)CN)C(=O)N[C@@H](CCCCN)C(=O)N[C@@H](CC(=O)O)C(=O)N[C@@H](CC(C)C)C(=O)N[C@H](C(=O)N[C@@H](Cc1ccccc1)C(=O)N[C@@H](CCCCN)C(=O)NCC(=O)N[C@H](C(=O)N[C@@H](CCCCN)C(=O)N[C@@H](Cc1cnc[nH]1)C(=O)N[C@H](C(=O)NCC(=O)N[C@@H](CCCCN)C(=O)N[C@@H](CCC(=O)O)C(=O)N[C@H](C(=O)NCC(=O)N[C@@H](CCSC)C(=O)N[C@@H](CC(=O)O)C(=O)N[C@H](C(=O)N[C@H](C(=O)N[C@@H](CCCN=C(N)N)C(=O)N[C@H](C(=O)NCC(=O)N[C@H](C(=O)N[C@@H](CC(=O)O)C(=O)N[C@H](C(=O)N[C@@H](C)C(=O)NCC(=O)N[C@H]1CSSC[C@@H](C(=O)O)NC(=O)[C@H](CCC(=O)O)NC(=O)CNC(=O)[C@H](CCCCN)NC(=O)[C@H]([C@@H](C)CC)NC(=O)[C@H](CCCCN)NC1=O)C(C)C)[C@@H](C)CC)[C@@H](C)O)[C@@H](C)CC)C(C)C)C(C)C)[C@@H](C)CC)C(C)C)[C@@H](C)CC [GLFSKFAGKGIKDLIFKGVKHIGKEVGMDVIRTGIDVAGCKIKGEC] | 0.555 (≈ 2.7 µg/mL) | 1.11 (≈ 5.4 µg/mL) | 1.11 (≈ 5.4 µg/mL) | 0.555 (≈ 2.7 µg/mL) |  |  |  | 
5 | CC[C@H](C)[C@H](NC(=O)CN)C(=O)N[C@@H](Cc1ccccc1)C(=O)N[C@H](C(=O)N[C@@H](CC(C)C)C(=O)N[C@H](C(=O)N[C@@H](CCCCN)C(=O)NCC(=O)N[C@@H](C)C(=O)N[C@@H](C)C(=O)N[C@@H](CCCCN)C(=O)N[C@@H](CC(C)C)C(=O)N[C@H](C(=O)NCC(=O)N[C@@H](CCCCN)C(=O)N[C@H](C(=O)N[C@H](C(=O)N[C@@H](C)C(=O)N[C@@H](CCCCN)C(=O)N[C@@H](CCC(=O)O)C(=O)N[C@@H](C)C(=O)NCC(=O)N[C@@H](CCCCN)C(=O)N[C@H](C(=O)NCC(=O)N[C@@H](CC(C)C)C(=O)N[C@@H](CCC(=O)O)C(=O)N[C@@H](CC(C)C)C(=O)N[C@@H](CCSC)C(=O)N[C@@H](C)C(=O)N[C@H]1CSSC[C@@H](C(=O)O)NC(=O)[C@H](CCC(N)=O)NC(=O)[C@H](CC(N)=O)NC(=O)[C@H]([C@@H](C)O)NC(=O)[C@H]([C@@H](C)CC)NC(=O)[C@H](CCCCN)NC1=O)[C@@H](C)O)C(C)C)[C@@H](C)O)[C@@H](C)CC)[C@@H](C)CC)[C@@H](C)O [GIFTLIKGAAKLIGKTVAKEAGKTGLELMACKITNQC] | 1.13 (≈ 4.3 µg/mL) | 2.22 (≈ 8.5 µg/mL) | 1.13 (≈ 4.3 µg/mL) | 2.22 (≈ 8.5 µg/mL) |  |  |  | 
6 | CC[C@H](C)[C@H](NC(=O)[C@H](CC(C)C)NC(=O)[C@@H](NC(=O)[C@H](Cc1ccccc1)NC(=O)[C@@H](NC(=O)[C@@H](N)CCC(N)=O)C(C)C)[C@@H](C)O)C(=O)N[C@@H](CCCCN)C(=O)NCC(=O)N[C@@H](C)C(=O)N[C@H](C(=O)N[C@@H](CCC(N)=O)C(=O)N[C@@H](CC(C)C)C(=O)N[C@H](C(=O)N[C@@H](CCCN=C(N)N)C(=O)N[C@@H](CCCCN)C(=O)N[C@H](C(=O)N[C@@H](CC(C)C)C(=O)NCC(=O)N[C@@H](CCC(=O)O)C(=O)N[C@@H](CCC(N)=O)C(=O)O)[C@@H](C)O)[C@@H](C)CC)[C@@H](C)O [QVFTLIKGATQLIRKTLGEQ] | 7.13 (≈ 16 µg/mL) | 1.78 (≈ 4 µg/mL) | 3.56 (≈ 8 µg/mL) | 3.56 (≈ 8 µg/mL) |  |  |  | 
7 | CC[C@H](C)[C@H](NC(=O)CNC(=O)[C@H](CCCCN)NC(=O)[C@H](C)NC(=O)[C@@H](NC(=O)[C@H](CCCCN)NC(=O)[C@H](CCCCN)NC(=O)[C@H](CC(C)C)NC(=O)[C@@H](NC(=O)[C@H](CC(=O)O)NC(=O)[C@H](CCCCN)NC(=O)[C@@H](NC(=O)[C@H](Cc1ccccc1)NC(=O)CNC(=O)[C@@H]1CCCN1C(=O)[C@@H](NC(=O)[C@H](CCCCN)NC(=O)[C@@H](N)CC(C)C)[C@@H](C)CC)C(C)C)[C@@H](C)O)C(C)C)C(=O)N[C@@H](Cc1ccccc1)C(=O)N[C@@H](CO)C(=O)N[C@@H](C)C(=O)N[C@H](C(=O)N[C@@H](C)C(=O)NCC(=O)N[C@@H](C)C(=O)N[C@@H](CCSC)C(=O)N[C@H](C(=O)N1CCC[C@H]1C(=O)N[C@@H](CO)C(=O)O)[C@@H](C)O)C(C)C [LKIPGFVKDTLKKVAKGIFSAVAGAMTPS] |  |  | 40 (≈ 119 µg/mL) |  | ≥ 80 | 20 (≈ 59.5 µg/mL) | 20 (≈ 59.5 µg/mL) | 20 (≈ 59.5 µg/mL)
